# Assay results: US20070078177A1, “METHODS AND COMPOSITIONS FOR TREATING NON AGE RELATED HEARING IMPAIRMENT IN A SUBJECT” (WASHINGTON UNIVERSITY IN ST. LOUIS, priority 2005, published 2007)
# “Also recorded” adds a separate entry of the source.
# Assays:
# [1] = test system: noise-induced hearing loss (NIHL); experiment: Therapeutic function on noise-induced hearing loss: ABR thresholds, drug in drinking water right after noise exposure
# [2] = test system: outer hair cells (OHCs), inner hair cells (IHCs), and spiral ganglion neurons (SGNs); experiment: Cochlear histology after noise exposure: counting of IHCs, OHCs and SGNs, cytocochleograms; assay type: in vivo, C57BL/6J mice; details: for number (density) of SGNs, control vs drug-treated mice: apex, middle and base regions, male mice at 3 months, drug after noise, FIG. 6B (trimethadione), FIG. 7 (ethosuximide); for gross morphological changes in mid-modiolar sections, control vs drug-treated mice: drug after noise exposure
# From the text: The methods for fixing, processing and analyzing the mouse cochlea have been described in detail elsewhere (Ohlemiller et al., 2000; Ou et al., 2000). Briefly, mice were perfused transcardially with cold 2% paraformaldehyde and 2% glutaraldehyde in 0.1 M phosphate buffer. Both cochleae were isolated, the stapes removed, and immersed in the same fixative. Complete exposure of the cochlea to the fixative was ensured by making a small hole at the apex of the cochlear capsule, gently circulating the fixative over the cochlea using a transfer pipet. After decalcification in sodium EDTA, the cochleae were post-fixed in buffered 1% osmium tetroxide, dehydrated in an ascending acetone series, and embedded in Epon. For SGN counting, mid-modiolar sections (4 μm) were cut and about fifty sections were collected for each cochlea. The number of SGN nuclei at the apex, middle, and base was counted every fifth section (total 10 sections per one cochlea) under a 200× visual field using a computerized planimetry program of Image Pro Plus (Media Cybernetics). Because all sections were cut in a similar orientation, it was possible to evaluate comparisons between two groups by Mann-Whitney tests. For hair cell counting, cochleae were dissected into roughly half-turn segments. These half-turn segments were examined in mineral oil under Nomarski optics, using a calibrated ocular. Three separate inner hair cell (IHC) and outer hair cell (OHC) counts were obtained from non-overlapping 100 μm segments. Cytocochleogrames were prepared for one pair of mice with the best prophylactic function of trimethadione. The percentages of missing IHCs and OHCs were determined by dividing the number of missing hair cells by the total number of hair cells (i.e. present plus absent) in the organ of Corti.
# [3] = test system: noise-induced hearing loss (NIHL); experiment: Prophylactic function on noise-induced hearing loss: ABR thresholds, drug in drinking water before noise exposure; details: for ABR threshold shift prevented, PTS: Drug-Noise-2w; for ABR threshold shift prevented, PTS / ABR threshold shift prevented, TTS: P<0.01; for ABR threshold shift prevented, TTS: Drug-Noise-24h
# [4] = stated as reason for selecting TMO; cited from earlier work
# [5] = both male and female mice, 3 months old, drug in drinking water two weeks before noise, one-way ANOVA p<0.05, FIG. 5
# [6] = female mice, across five tested frequencies, FIG. 5B
# [7] = male mice, five tested frequencies from 5 to 40K, FIG. 5A
compound,measurement,setting,value
CCC1(C)CC(=O)NC1=O (stereo not drawn) [ethosuximide],temporary threshold shift (TTS) vs control,"[1]; 24 hours after noise (wideband, 110 dB, 30 min), ethosuximide 400 mg/kg/day in drinking water starting immediately after noise, FIG. 2B",significantly lower
same,permanent threshold shift (PTS) vs control,"[1]; 21 days after noise, ethosuximide 400 mg/kg/day in drinking water for three weeks starting immediately after noise, FIG. 2C",significantly lower
same,ABR threshold before the noise exposure vs control,"[1]; ethosuximide group vs control, n=5, 2 month-old mice, FIG. 2A",no difference
same,"ABR threshold shift, PTS, vs control","[1]; male mice (n=5), 3 months old, ethosuximide in drinking water right after noise, P<0.01, FIG. 4",less ABR threshold shift; also recorded: significant protection
same,"ABR threshold shift, TTS, vs control","[1]; male mice (n=5), 3 months old, ethosuximide in drinking water right after noise, P<0.05, FIG. 4",less ABR threshold shift; also recorded: significant protection
same,"number (density) of SGNs, control vs drug-treated mice",[2],no difference; also recorded: not significantly different
same,"gross morphological changes in mid-modiolar sections, control vs drug-treated mice",[2],No obvious gross morphological changes
CN1C(=O)OC(C)(C)C1=O [trimethadione],temporary threshold shift (TTS) vs control,"[3]; 24 hours after noise (wideband, 110 dB, 30 min), TMO 200 mg/kg/day in drinking water three weeks before noise, all seven frequencies, FIG. 1B",significantly lower
same,permanent threshold shift (PTS) vs control,"[3]; 14 days after noise (wideband, 110 dB, 30 min), TMO 200 mg/kg/day in drinking water three weeks before noise, all seven frequencies, FIG. 1C, listed as TMO",significantly lower
same,ABR threshold before the noise exposure vs control,"[3]; TMO 200 mg/kg body weight/day in drinking water, one week after TMO treatment, n=5, 8 month-old mice, FIG. 1A",no difference
same,ABR threshold shift at the apex region,"[3]; apex region (0 to 8 kHz), single treated mouse of the pair, control about 25 dB",no shift
same,"protection from NIHL, PTS",[3]; [5],significant protection
same,"protection from NIHL, TTS",[3]; [5],significant protection
same,ABR threshold shift after the noise exposure,"[3]; both male and female mice, prophylactic treatment",dramatically reduced
same,"ABR threshold shift prevented, PTS",[3]; [6],~7.0 dB
same,"ABR threshold shift prevented, TTS",[3]; [6],about 5.0 dB
same,"ABR threshold shift prevented, PTS",[3]; [7],~9.7 dB
same,"ABR threshold shift prevented, TTS",[3]; [7],about 4.3 dB
same,permanent ABR threshold shift among five frequencies tested,"[3]; single treated mouse (male, 3 months) of a selected pair, drug two weeks before noise, control mouse about 35 dB, FIG. 8",11 dB
same,ABR threshold at 40 kHz before the noise exposure,"[3]; single treated mouse of the pair, same value in the control mouse",28 dB
same,"ABR threshold shift, TTS, vs control","[1]; female mice (n=4), 24 h after noise, drug right after noise, FIG. 3B",no significant difference
same,"ABR threshold shift, PTS, vs control","[1]; female mice (n=4), two weeks after noise, drug right after noise, FIG. 3B",no statistical difference
same,"protection from NIHL, TTS","[1]; male mice (n=3), 3 months old, drug in drinking water right after noise, one-way ANOVA p<0.05, FIG. 3A",significant protection
same,"ABR threshold shift, PTS, vs control","[1]; male mice (n=3), two weeks after noise, drug right after noise, P<0.01",significantly less; also recorded: significant protection
same,"less ABR threshold shift than controls, TTS","[1]; male mice, 24 h after noise, drug in drinking water right after noise, across all five frequencies, P<0.05, FIG. 3A",about 10 dB
same,pre-exposure ABR thresholds (Pre-Noise-Only vs Pre-Noise-Drug),"[1]; male or female mice, 3 months old, FIGS. 3A and 3B",no significant difference
same,loss of IHCs,"[2]; apex region (0 to 8 kHz), single treated mouse of the pair, control 0.3%",~1.9%
same,loss of OHCs,"[2]; apex region (0 to 8 kHz), single treated mouse of the pair, control 4.6%",~3.5%
same,"number (density) of SGNs, control vs drug-treated mice",[2],no difference; also recorded: not significantly different
same,missing IHCs,"[2]; base region (32 kHz to 64 kHz), single treated mouse of the pair, control 22.2%, FIG. 8",about 1.8%
same,missing OHCs,"[2]; base region (32 kHz to 64 kHz), single treated mouse of the pair, control 74.4%, FIG. 8",~68.8%
same,"gross morphological changes in mid-modiolar sections, control vs drug-treated mice",[2],No obvious gross morphological changes
same,morphological differences among groups,[2]; groups testing the prophylactic function,no obvious morphological differences
same,"IHC numbers, control vs drug-treated mice","[2]; hook, low base, upper base and apex of cochlea, 3-months-old male mice (n=3), FIG. 6A",no significant difference
same,"OHC numbers, control vs drug-treated mice","[2]; hook, low base, upper base and apex of cochlea, 3-months-old male mice (n=3), Noise-Only-2w vs Noise-Drug-2w, FIG. 6A",trend for the loss of more outer hair cells; also recorded: no significant difference
same,water solubility,[4],water soluble
